# Reference: ChEMBL document CHEMBL5390287, “Discovery of a Tritiated Radioligand with High Affinity and Selectivity for the Histamine H3 Receptor” (ACS Med Chem Lett, 2023)
# Activity calls are given as the source filed them. The calls are words filed in the database; no cut-off is given here.
# What was measured:
# Histamine H3 receptor [1] = biological target: T1, Histamine H3 receptor (Homo sapiens, UniProt Q9Y5N1); assay: Displacement of [3H]UR-MN259 from SP-FLAG tagged human histamine H3 receptor expressed in HEK293T cells assessed as inhibition constant incubated for 60 min by scintillation counter analysis; assay type: cell-based
# T1 sequence (Q9Y5N1 whole entry): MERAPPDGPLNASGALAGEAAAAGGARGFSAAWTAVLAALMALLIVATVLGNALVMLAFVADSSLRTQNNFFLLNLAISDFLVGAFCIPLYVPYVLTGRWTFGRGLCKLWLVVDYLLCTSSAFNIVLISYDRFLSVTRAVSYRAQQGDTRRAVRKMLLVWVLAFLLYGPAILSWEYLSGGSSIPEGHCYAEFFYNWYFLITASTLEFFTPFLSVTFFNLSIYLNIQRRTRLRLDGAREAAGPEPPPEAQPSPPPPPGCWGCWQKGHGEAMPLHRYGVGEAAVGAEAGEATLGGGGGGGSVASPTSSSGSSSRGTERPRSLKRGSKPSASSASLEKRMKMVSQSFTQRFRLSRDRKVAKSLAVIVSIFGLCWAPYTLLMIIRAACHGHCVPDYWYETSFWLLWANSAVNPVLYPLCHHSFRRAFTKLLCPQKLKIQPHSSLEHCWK
# Histamine H3 receptor [2] = biological target: T1, Histamine H3 receptor; assay: Binding affinity to SP-FLAG tagged human histamine H3 receptor expressed in HEK293T cells using sodium containing Leibovitz's L-15 medium incubated for 60 min by scintillation counter analysis; assay type: cell-based
# Histamine H3 receptor [3] = biological target: T1, Histamine H3 receptor; assay: Binding affinity to SP-FLAG tagged human histamine H3 receptor expressed in HEK293T cells assessed as dissociation constant by incubated for 30 mins by scintillation counting analysis; assay type: cell-based
# Histamine H3 receptor [4] = biological target: T1, Histamine H3 receptor; assay: Binding affinity to SP-FLAG tagged human histamine H3 receptor expressed in HEK293T cells assessed as kinetic dissociation constant incubated for 30 mins by scintillation counting analysis; assay type: cell-based
# Histamine H3 receptor [5] = biological target: T1, Histamine H3 receptor; assay: Displacement of UR-NR266 from NLuc-tagged human histamine H3 receptor expressed in HEK293T cells assessed as inhibition constant incubated for 5 mins followed by UR-NR266 addition by furimazine based NanoBRET competition binding assay; assay type: cell-based
# Histamine H1 receptor = Histamine H1 receptor (Homo sapiens, UniProt P35367); assay: Displacement of [3H]mepyramine from SP-FLAG tagged human histamine H1 receptor expressed in HEK293T cells assessed as inhibition constant incubated for 60 min by scintillation counter analysis; assay type: cell-based
# Histamine H1 receptor, sequence (P35367 whole entry): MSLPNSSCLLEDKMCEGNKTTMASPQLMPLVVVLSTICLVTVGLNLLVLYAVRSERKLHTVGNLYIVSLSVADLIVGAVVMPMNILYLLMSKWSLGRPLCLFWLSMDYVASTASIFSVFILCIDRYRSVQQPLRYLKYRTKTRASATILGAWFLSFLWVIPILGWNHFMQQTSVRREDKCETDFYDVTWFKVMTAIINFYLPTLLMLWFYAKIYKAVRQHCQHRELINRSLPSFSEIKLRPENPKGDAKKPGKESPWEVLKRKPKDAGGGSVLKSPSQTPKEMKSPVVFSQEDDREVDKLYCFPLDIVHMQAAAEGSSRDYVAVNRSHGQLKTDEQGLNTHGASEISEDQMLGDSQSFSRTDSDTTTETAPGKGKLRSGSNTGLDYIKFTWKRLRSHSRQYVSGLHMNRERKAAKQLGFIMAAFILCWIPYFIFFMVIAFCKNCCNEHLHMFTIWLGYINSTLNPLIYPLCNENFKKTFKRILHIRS
# Histamine H2 receptor = Histamine H2 receptor (Homo sapiens, UniProt P25021); assay: Displacement of [3H]UR-KAT479 from SP-FLAG tagged human histamine H2 receptor expressed in HEK293T cells assessed as inhibition constant incubated for 60 min by scintillation counter analysis; assay type: cell-based
# Histamine H2 receptor, sequence (P25021 whole entry): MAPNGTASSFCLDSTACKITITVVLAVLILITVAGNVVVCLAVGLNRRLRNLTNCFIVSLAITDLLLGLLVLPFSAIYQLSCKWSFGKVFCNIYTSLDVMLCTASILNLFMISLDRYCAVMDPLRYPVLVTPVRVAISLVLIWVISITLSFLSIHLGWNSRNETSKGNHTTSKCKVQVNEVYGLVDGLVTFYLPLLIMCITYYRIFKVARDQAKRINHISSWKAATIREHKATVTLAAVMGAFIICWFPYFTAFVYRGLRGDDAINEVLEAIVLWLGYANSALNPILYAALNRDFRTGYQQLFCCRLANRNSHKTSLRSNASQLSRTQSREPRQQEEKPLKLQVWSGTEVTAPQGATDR
# Histamine H4 receptor = Histamine H4 receptor (Homo sapiens, UniProt Q9H3N8); assay: Displacement of [3H]histamine from SP-FLAG tagged human histamine H4 receptor expressed in HEK293T cells assessed as inhibition constant incubated for 60 min by scintillation counter analysis; assay type: cell-based
# Homo sapiens [6] = species on record: Homo sapiens; assay: Selectivity ratio of Ki for human histamine H1 receptor to Ki for human histamine H3 receptor
# Homo sapiens [7] = species on record: Homo sapiens; assay: Selectivity ratio of Ki for human histamine H2 receptor to Ki for human histamine H3 receptor
# Homo sapiens [8] = species on record: Homo sapiens; assay: Selectivity ratio of Ki for human histamine H4 receptor to Ki for human histamine H3 receptor
# Histamine H3 receptor [9] = biological target: T1, Histamine H3 receptor; assay: Antagonist activity at human histamine H3 receptor in HEK293T cells expressing H3R-NlucC/NlucN-mGsi construct using furimazine as substrate assessed as displacement of histamine by MiniG recruitment assay; assay type: functional, cell-based; conditions: filed as antagonist
# Histamine H3 receptor [10] = biological target: T1, Histamine H3 receptor; assay: Binding affinity to SP-FLAG tagged human histamine H3 receptor expressed in HEK293T cells; assay type: cell-based; conditions: tested as the 3H-labelled form
# Histamine H3 receptor [11] = biological target: T1, Histamine H3 receptor; assay: Binding affinity to SP-FLAG tagged human histamine H3 receptor expressed in HEK293T cells assessed as association time constant incubated for 60 mins by scintillation counting analysis; assay type: cell-based; conditions: tested as the 3H-labelled form
# Histamine H3 receptor [12] = biological target: T1, Histamine H3 receptor; assay: Binding affinity to SP-FLAG tagged human histamine H3 receptor expressed in HEK293T cells assessed as dissociation rate constant incubated for 30 mins by scintillation counting analysis; assay type: cell-based; conditions: tested as the 3H-labelled form
# Histamine H3 receptor [13] = biological target: T1, Histamine H3 receptor; assay: Binding affinity to SP-FLAG tagged human histamine H3 receptor expressed in HEK293T cells assessed as dissociation time constant incubated for 30 mins by scintillation counting analysis; assay type: cell-based; conditions: tested as the 3H-labelled form
# Histamine H3 receptor [14] = biological target: T1, Histamine H3 receptor; assay: Binding affinity to SP-FLAG tagged human histamine H3 receptor expressed in HEK293T cells assessed as association rate constant incubated for 60 mins by scintillation counting analysis; assay type: cell-based; conditions: tested as the 3H-labelled form
# Histamine H3 receptor [15] = biological target: T1, Histamine H3 receptor; assay: Agonist activity at human histamine H3 receptor in HEK293T cells expressing H3R-NlucC/NlucN-mGsi construct using furimazine as substrate upto 10 uM by MiniG recruitment assay; assay type: functional, cell-based
# Histamine H3 receptor [16] = biological target: T1, Histamine H3 receptor; assay: Binding affinity to SP-FLAG tagged human histamine H3 receptor expressed in HEK293T cells assessed as maximum binding; assay type: cell-based; conditions: tested as the 3H-labelled form
Ki (Histamine H3 receptor [1]) [nM],Ki (Histamine H3 receptor [2]) [nM],Kd (Histamine H3 receptor [3]) [nM],Kd (Histamine H3 receptor [4]) [nM],Kd (Histamine H3 receptor [2]) [nM],Ki (Histamine H3 receptor [5]) [nM],Ki (Histamine H1 receptor) [nM],Ki (Histamine H2 receptor) [nM],Ki (Histamine H4 receptor) [nM],Ratio Ki (Homo sapiens [6]),Ratio Ki (Homo sapiens [7]),Ratio Ki (Homo sapiens [8]),pKb (Histamine H3 receptor [9]),Kobs (Histamine H3 receptor [10]) [min⁻¹],TIME (Histamine H3 receptor [11]) [h],K (Histamine H3 receptor [12]) [min⁻¹],TIME (Histamine H3 receptor [13]) [h],K (Histamine H3 receptor [14]) [M⁻¹ s⁻¹],Activity (Histamine H3 receptor [15]),Bmax (disintegrations/minute) (Histamine H3 receptor [16]),SMILES
5.75,28.2,–,–,–,–,–,–,–,–,–,–,–,–,–,–,–,–,–,–,N=C(N)SCCc1cnc[nH]1 [IMETIT]
–,–,0.562,0.324,0.513,–,–,–,–,–,–,–,–,–,–,–,–,–,–,–,[3H]C([3H])([3H])C([3H])([3H])C(=O)NC1CCN(Cc2ccc(OCCCN3CCCCC3)cc2)CC1
0.282,0.288,–,–,–,0.275,> 100000,> 100000,> 100000,> 100,> 100,> 100,9.39,0.18,0.102,0.07,0.241,3.67e+06,inactive,1670,CCC(=O)NC1CCN(Cc2ccc(OCCCN3CCCCC3)cc2)CC1
